Read-outs that look alike come from different tables or passages of the source.

For assay [1], the target named is T1, GRP receptors on PC-3 cells (Homo sapiens, UniProt P30550).
T1 construct: two different human cancer cell lines that express GRP receptors (i.e., CF-PAC1 and PC-3 cell lines); host or cells: PC-3 human prostate cancer cells (whole cells)
Nature of the assay: Competitive cell binding vs 125I-Tyr4-BBN, PC-3 cells.

For assay [2], the target named is T2, GRP receptors on CF PAC-1 cells (Homo sapiens, UniProt P30550).
T2 construct: two different human cancer cell lines that express GRP receptors (i.e., CF-PAC1 and PC-3 cell lines); endogenous in cells; host or cells: CFPAC-1 human pancreatic cancer cells (whole cells)
T2 sequence (P30550 whole entry): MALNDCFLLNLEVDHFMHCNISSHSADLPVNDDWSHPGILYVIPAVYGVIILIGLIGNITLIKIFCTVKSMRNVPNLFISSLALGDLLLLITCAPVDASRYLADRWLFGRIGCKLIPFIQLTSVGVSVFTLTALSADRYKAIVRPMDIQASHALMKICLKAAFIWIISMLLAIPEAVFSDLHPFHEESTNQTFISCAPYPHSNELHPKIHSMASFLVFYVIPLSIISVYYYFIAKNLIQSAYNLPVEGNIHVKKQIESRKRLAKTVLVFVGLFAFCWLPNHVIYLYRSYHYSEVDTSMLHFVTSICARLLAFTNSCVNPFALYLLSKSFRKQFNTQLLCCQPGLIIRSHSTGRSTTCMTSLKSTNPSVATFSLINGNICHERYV
Put plainly: Competitive cell binding vs 125I-Tyr4-BBN, CF PAC-1 cells.

In assay [3] the target is T3, GRP receptors on Swiss 3T3 cells (Mus musculus, UniProt P21729).
T3 construct: endogenous in cells; host or cells: Swiss 3T3 mouse fibroblasts (whole cells)
T3 sequence (P21729 whole entry): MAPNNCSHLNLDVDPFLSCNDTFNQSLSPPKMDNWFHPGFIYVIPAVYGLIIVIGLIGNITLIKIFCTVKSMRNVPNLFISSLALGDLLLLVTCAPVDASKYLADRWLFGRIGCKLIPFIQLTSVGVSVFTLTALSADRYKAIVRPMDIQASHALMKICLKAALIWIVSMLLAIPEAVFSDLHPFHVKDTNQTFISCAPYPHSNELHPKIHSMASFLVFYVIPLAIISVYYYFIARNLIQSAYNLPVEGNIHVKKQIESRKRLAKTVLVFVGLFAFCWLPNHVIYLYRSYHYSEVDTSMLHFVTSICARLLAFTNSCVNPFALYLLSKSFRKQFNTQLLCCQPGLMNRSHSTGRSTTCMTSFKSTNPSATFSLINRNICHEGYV
Nature of the assay: Competitive cell binding vs 125I-Tyr4-BBN, Swiss 3T3 cells. The method, then: The binding affinities of the synthetic BBN derivatives were assessed for GRP receptors on Swiss 3T3 cells and, in some cases, on a variety of human cancer cell lines, that express GRP receptors. […] The cell binding assay methods used to measure the IC50's is standard and used techniques previously reported [Jensen et al., 1993; Cai et al., 1994; Cai et al., 1992]. The methods used for determining IC50's for all GRP receptor binding compounds on all cell lines was similar. The specific method used to measure IC50's on Swiss 3T3 cells is briefly described as follows:
(§1) Swiss 3T3 mouse fibroblasts are grown to confluence in 48 well microtiter plates. […] The growth media was removed, the cells were washed twice with incubation media, and incubation media was returned to the cells. ^125I-Tyr4-BBN (0.01 uCi) was added to each well in the presence of increasing concentrations of the appropriate competitive peptide. Typical concentrations of displacing peptide ranged from 10-12 to 10-5 moles of displacing ligand per well. The cells were incubated at 37° C. for forty minutes in a 95% […]/5% CO2 humidified environment. At forty minutes post initiation of the incubation, the medium was discarded, and the cells were washed twice with cold incubation media. The cells were harvested from the wells following incubation in a trypsin/EDTA solution for five minutes at 37° C. Subsequently, the radioactivity, per well, was determined and the maximum % total uptake of the radiolabeled peptide was determined and normalized to 100%.
The binding affinities of the synthetic BBN derivatives were assessed for GRP receptors on Swiss 3T3 cells, PC-3 cells and CF PAC-1 cells. The IC50's of each of derivative were determined relative to (i.e., in competition with) ^125I-Tyr^4-BBN. The cell binding assay methods used to measure the IC50's is standard and was used by techniques previously reported [Jensen et al., 1993; Cai et al., 1992; Cai et al., 1994]. The methods used for determining IC50's with all BBN analogue binding to GRP receptors present on all three cell lines were similar. The specific method used to measure IC50's on Swiss 3T3 cells, is briefly described as follows:
as §1, with “microliter” for “microtiter”, “^125I-Tyr^4-BBN” for “^125I-Tyr4-BBN”, “μCi)” for “uCi)”, “10^−12” for “10-12”, “10^−5” for “10-5”, “100%. A similar procedure was used in performing cell binding assays with both the PC-3 and CFa-PAC-1 human cancer cell lines.” for “100%.”

The subject of the next assay is PC-3 cells. Nature of the assay: Internalization and efflux of In-DOTA-8-Aoc-BBN in PC-3 cells. Format: cell-based, human. Here is the method: Internalization and efflux studies. […] The percent of cell-associated activity as a function of time (in the incubating medium at 37° C.) was determined. The percentage radioactivity trapped in the cells was determined after removing activity bound to the surface of the cells by washing with a pH-2.5 (0.2M acetic acid and 0.5M NaCl) buffer 1, 2, 3 and 4 hours afterwards.

T1 sequence (P30550 whole entry): as the sequence (P30550 whole entry) above

As for `CSCC[C@H](NC(=O)[C@H](CC(C)C)NC(=O)[C@H](Cc1c[nH]cn1)NC(=O)CNC(=O)[C@@H](NC(=O)[C@H](C)NC(=O)[C@H](Cc1c[nH]c2ccccc12)NC(=O)[C@H](CCC(N)=O)NC(=O)CCCCNC(=O)COC1CSCCCSCCCSCCCSC1)C(C)C)C(N)=O` [RhCl2BBN-37], the IC50 in assay [1] (PC-3 cells, read-out: IC50) is approximately 7 nM; in assay [1] (Prostate CA, PC-3, read-out: IC50 (Mean Value)), 7 nM; in assay [2], approximately 7 nM; in assay [3] it was 4.76 ± 0.79 nM.
Turning to `CSCC[C@H](NC(=O)[C@H](CC(C)C)NC(=O)[C@H](Cc1c[nH]cn1)NC(=O)CNC(=O)[C@@H](NC(=O)[C@H](C)NC(=O)[C@H](Cc1c[nH]c2ccccc12)NC(=O)[C@H](CCC(N)=O)NC(=O)CCNC(=O)COC1CSCCCSCCCSCCCSC1)C(C)C)C(N)=O` [BBN-46], the IC50 in assay [3] turned out to be 2.34 ± 0.53 nM.
On to `CSCC[C@H](NC(=O)[C@H](CC(C)C)NC(=O)[C@H](Cc1c[nH]cn1)NC(=O)CNC(=O)[C@@H](NC(=O)[C@H](C)NC(=O)[C@H](Cc1c[nH]c2ccccc12)NC(=O)[C@H](CCC(N)=O)NC(=O)CNC(=O)CNC(=O)COC1CSCCCSCCCSCCCSC1)C(C)C)C(N)=O` [BBN-98], for which the IC50 in assay [1] (PC-3 cells, read-out: IC50) was in the range of 1 to 6 nM; in assay [2] it was 1 to 6 nM; in assay [3], 1 to 6 nM.
For `CSCC[C@H](NC(=O)[C@H](CC(C)C)NC(=O)[C@H](Cc1c[nH]cn1)NC(=O)CNC(=O)[C@@H](NC(=O)[C@H](C)NC(=O)[C@H](Cc1c[nH]c2ccccc12)NC(=O)[C@H](CCC(N)=O)NC(=O)CCCCNC(=O)COC1CSCCCSCCCSCCCSC1)C(C)C)C(N)=O` [BBN-37], the half-inhibitory concentration (IC50) in assay [3] came out at 1.79 ± 0.09 nM.
Still for that read-out and setting: in the case of `CSCC[C@H](NC(=O)[C@H](CC(C)C)NC(=O)[C@H](Cc1c[nH]cn1)NC(=O)CNC(=O)[C@@H](NC(=O)[C@H](C)NC(=O)[C@H](Cc1c[nH]c2ccccc12)NC(=O)[C@H](CCC(N)=O)NC(=O)CCCCCCCNC(=O)COC1CSCCCSCCCSCCCSC1)C(C)C)C(N)=O` [BBN-47] it was 4.19 ± 0.91 nM.
In the case of `CSCC[C@H](NC(=O)[C@H](CC(C)C)NC(=O)[C@H](Cc1c[nH]cn1)NC(=O)CNC(=O)[C@@H](NC(=O)[C@H](C)NC(=O)[C@H](Cc1c[nH]c2ccccc12)NC(=O)[C@H](CCC(N)=O)NC(=O)CNC(=O)COC1CSCCCSCCCSCCCSC1)C(C)C)C(N)=O` [BBN-99], the concentration for half-maximal inhibition (IC50) was 1 to 6 nM in assay [1] (PC-3 cells, read-out: IC50); 1 to 6 nM in assay [2]; 1 to 6 nM in assay [3].
In the case of `CSCC[C@H](NC(=O)[C@H](CC(C)C)NC(=O)[C@H](Cc1c[nH]cn1)NC(=O)CNC(=O)[C@@H](NC(=O)[C@H](C)NC(=O)[C@H](Cc1c[nH]c2ccccc12)NC(=O)[C@H](CCC(N)=O)NC(=O)CCNC(=O)COC1CSCCCSCCCSCCCSC1)C(C)C)C(N)=O` [RhCl2BBN-46], in assay [3], the IC50 was 3.38 ± 0.69 nM.
Consider `CSCC[C@H](NC(=O)[C@H](CC(C)C)NC(=O)[C@H](Cc1c[nH]cn1)NC(=O)CNC(=O)[C@@H](NC(=O)[C@H](C)NC(=O)[C@H](Cc1c[nH]c2ccccc12)NC(=O)[C@H](CCC(N)=O)NC(=O)CCCCCCCNC(=O)CN1CCN(CC(=O)O)CCN(CC(=O)O)CCN(CC(=O)O)CC1)C(C)C)C(N)=O` [In-DOTA-8-Aoc-BBN[7-14]NH2], for which, in the assay with PC-3 cells, the internalization result is “rapid receptor mediated endocytosis” and the retention within cells entry is listed as “remained retained within the cells for a prolonged time period”.

A word on the IC50: it is the concentration that gives 50% inhibition.

These data come from US20060067886A1, “Gastrin receptor-avid peptide conjugates” (priority 1997, published 2006).
